From patent publication US11603373B2, “TDO2 and IDO1 inhibitors” (Genentech, Inc., priority 2017, dated 2023)

How the values were obtained:
[1] = biological target: T1, IDO1 (A172+IFNg cells, high IDO expressing cells) (Homo sapiens, UniProt P14902); assay: NFK GreenScreen cell assay, inhibition of IDO in A172+IFNg cells; format: cell-based; conditions: read-out: IDO cell Fluor EC50
T1 construct: A172+IFNg cells (high IDO expressing cells); endogenous in cells; host or cells: A172 cells induced with 100 ng/ml IFNγ
Source text: (§1) Cells are counted on a Vi-Cell (Beckman Coulter). […] The final DMSO concentration is 0.5%.

[2] = biological target: T2, TDO2 (SW48 cells, high TDO expressing cells) (Homo sapiens, UniProt P48775); assay: NFK GreenScreen cell assay, inhibition of TDO in SW48 cells; format: cell-based; conditions: read-out: TDO2 Cell Fluor EC50
T2 construct: SW48 cells (high TDO expressing cells); endogenous in cells; host or cells: SW48 cells
Source text: as §1

T2 sequence (P48775 whole entry): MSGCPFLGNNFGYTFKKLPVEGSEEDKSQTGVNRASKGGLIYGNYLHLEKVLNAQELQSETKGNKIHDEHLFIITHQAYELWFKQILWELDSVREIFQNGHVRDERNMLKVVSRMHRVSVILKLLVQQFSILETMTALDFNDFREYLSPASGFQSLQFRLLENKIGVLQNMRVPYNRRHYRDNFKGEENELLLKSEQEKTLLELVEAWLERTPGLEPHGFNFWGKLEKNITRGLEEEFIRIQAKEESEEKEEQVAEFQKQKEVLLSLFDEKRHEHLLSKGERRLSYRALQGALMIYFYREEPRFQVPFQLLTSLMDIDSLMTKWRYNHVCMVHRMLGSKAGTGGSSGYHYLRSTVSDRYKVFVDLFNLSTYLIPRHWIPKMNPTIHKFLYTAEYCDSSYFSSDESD
T1 sequence (P14902 whole entry): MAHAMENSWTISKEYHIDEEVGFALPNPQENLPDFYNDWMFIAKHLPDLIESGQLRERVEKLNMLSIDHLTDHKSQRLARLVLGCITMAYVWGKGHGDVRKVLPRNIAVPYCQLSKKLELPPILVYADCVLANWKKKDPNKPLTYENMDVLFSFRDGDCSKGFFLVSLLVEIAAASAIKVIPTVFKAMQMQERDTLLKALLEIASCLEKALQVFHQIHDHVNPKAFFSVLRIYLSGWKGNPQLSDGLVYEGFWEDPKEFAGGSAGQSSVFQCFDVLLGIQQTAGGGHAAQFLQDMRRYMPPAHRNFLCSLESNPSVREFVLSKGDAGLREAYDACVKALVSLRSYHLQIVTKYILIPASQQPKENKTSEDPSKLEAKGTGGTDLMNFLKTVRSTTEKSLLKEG

| Structure (SMILES) | EC50 [1] | EC50 [2] |
| --- | --- | --- |
| CC(C)(C)OC(=O)N1CCC2(CC1)C[C@H](C1c3ccccc3-c3cncn31)[C@@H]2O (single isomer, unassigned) [Example 1a] | 4.3 µM | 6.3 µM |
| CC(C)(C)OC(=O)N1CCC2(CC1)C[C@@H]([C@H]1c3ccccc3-c3cncn31)[C@H]2O (single isomer, unassigned) [Example 1b] | 0.0279 µM | 0.3 µM |
| CC(C)(C)OC(=O)N1CCC2(CC[C@@H]([C@@H]3c4ccccc4-c4cncn43)[C@@H]2O)CC1 (single isomer, unassigned) [Example 2a] | 6.6 µM | 15 µM |
| CC(C)(C)OC(=O)N1CCC2(CC[C@H]([C@H]3c4ccccc4-c4cncn43)[C@H]2O)CC1 (single isomer, unassigned) [Example 2b] | 0.41 µM | 0.24 µM |
| CC(C)(C)OC(=O)N1CCC2(CC[C@@H]([C@H]3c4ccccc4-c4cncn43)[C@H]2O)CC1 (single isomer, unassigned) [Example 2c] | 0.0515 µM | 0.107 µM |
| CC(C)(C)OC(=O)N1CCC2(CC[C@H]([C@@H]3c4ccccc4-c4cncn43)[C@@H]2O)CC1 (single isomer, unassigned) [Example 2d] | 1.6 µM | 3.7 µM |
| CC(C)(C)OC(=O)N1CC2(CC[C@H]([C@@H]3c4ccccc4-c4cncn43)[C@@H]2O)C1 (single isomer, unassigned) [Example 3b] | 1.1 µM | 0.072 µM |
| CC(C)(C)OC(=O)N1CC2(CC[C@@H]([C@@H]3c4ccccc4-c4cncn43)[C@@H]2O)C1 (single isomer, unassigned) [Example 3c] | 13 µM | 14 µM |
| CC(C)(C)OC(=O)N1CC2(CC[C@H]([C@H]3c4ccccc4-c4cncn43)[C@H]2O)C1 (single isomer, unassigned) [Example 3d] | 4 µM | 0.13 µM |
| CC(C)(C)OC(=O)N1CC2(CC[C@@H]([C@H]3c4ccccc4-c4cncn43)[C@@H]2O)C1 (single isomer, unassigned) [Example 3e] | 7.1 µM | 14 µM |
| CC(C)(C)OC(=O)N1CC2(CC[C@H]([C@@H]3c4ccccc4-c4cncn43)[C@H]2O)C1 (single isomer, unassigned) [Example 3f] | 0.17 µM | 0.13 µM |
| CC(C)(C)OC(=O)N1CC2(CC[C@@H]([C@@H]3c4ccccc4-c4cncn43)[C@H]2O)C1 (single isomer, unassigned) [Example 3g] | 8.2 µM | 14 µM |
| CC(C)(C)OC(=O)N1CC2(CC[C@H]([C@H]3c4ccccc4-c4cncn43)[C@@H]2O)C1 (single isomer, unassigned) [Example 3h] | 0.2 µM | 1.2 µM |
| NS(=O)(=O)N1CCC2(CC[C@H]([C@H]3c4ccccc4-c4cncn43)[C@H]2O)CC1 (single isomer, unassigned) [Example 4b] | 16 µM | 0.51 µM |
| NS(=O)(=O)N1CCC2(CC[C@@H]([C@H]3c4ccccc4-c4cncn43)[C@H]2O)CC1 (single isomer, unassigned) [Example 4c] | 6.2 µM | 4.6 µM |
| NS(=O)(=O)N1CCC2(CC[C@H]([C@@H]3c4ccccc4-c4cncn43)[C@@H]2O)CC1 (single isomer, unassigned) [Example 4d] | 0.11 µM | 0.073 µM |
| CS(=O)(=O)N1CCC2(CC1)C[C@H]([C@@H]1c3ccccc3-c3cncn31)[C@@H]2O (single isomer, unassigned) [Example 6a] | 5.9 µM | 0.4 µM |
| CS(=O)(=O)N1CCC2(CC1)C[C@@H]([C@H]1c3ccccc3-c3cncn31)[C@@H]2O (single isomer, unassigned) [Example 6d] | 9.3 µM | 0.54 µM |
| CS(=O)(=O)N1CCC2(CC1)C[C@@H]([C@@H]1c3ccccc3-c3cncn31)[C@H]2O (single isomer, unassigned) [Example 6e] | 3.2 µM | 6.8 µM |
| CS(=O)(=O)N1CCC2(CC1)C[C@H]([C@H]1c3ccccc3-c3cncn31)[C@@H]2O (single isomer, unassigned) [Example 6f] | 0.024 µM | 0.12 µM |
| CS(=O)(=O)N1CCC2(CC1)C[C@H]([C@H]1c3ccccc3-c3cncn31)[C@H]2O (single isomer, unassigned) [Example 6g] | 4.68 µM | 1.23 µM |
| CS(=O)(=O)N1CCC2(CC1)C[C@@H]([C@@H]1c3ccccc3-c3cncn31)[C@@H]2O (single isomer, unassigned) [Example 6h] | 6.5 µM | 8.6 µM |
| O=C(C1CCc2nncn2C1)N1CCC2(CC1)CC(C1c3ccccc3-c3cncn31)C2O (stereo not drawn) [compound 67, [3-hydroxy-2-(5H-imidazo[1,5-b]isoindol-5-yl)-7-azaspiro[3.5]nonan-7-yl]-(5,6,7,8-tetrahydro-[1,2,4]triazolo[4,3-a]pyridin-6-yl)methanone] |  | 23 µM |

Results, then the compound that gave them:

| EC50 [1] | EC50 [2] | Structure (SMILES) |
| --- | --- | --- |
| 0.29 µM | 0.16 µM | O=S1(=O)CCC2(CC[C@@H]([C@H]3c4ccccc4-c4cncn43)[C@H]2O)CC1 (relative stereo) [Example 13a, (1R,2S)-1-hydroxy-2-((S)-5H-imidazo[5,1-a]isoindol-5-yl)-8-thiaspiro[4.5]decane 8,8-dioxide] |
| 2.1 µM | 0.41 µM | CC(C)(C)OC(=O)N1CC2CCC(C1)C21C[C@H]([C@@H]2c3ccccc3-c3cncn32)[C@@H]1O (relative stereo) [Example 22a, tert-butyl (2′S,3′R)-2′-hydroxy-3′-((R)-5H-imidazo[5,1-a]isoindol-5-yl)-3-azaspiro[bicyclo[3.2.1]octane-8,1′-cyclobutane]-3-carboxylate] |
| 3.9 µM | 0.37 µM | CS(=O)(=O)N1CCC2(CC[C@@H]([C@@H]3c4ccccc4-c4cncn43)[C@@H]2O)CC1 (single isomer, unassigned) [Example 7a] |
| 0.115 µM | 0.133 µM | CS(=O)(=O)N1CCC2(CC[C@@H]([C@H]3c4ccccc4-c4cncn43)[C@H]2O)CC1 (single isomer, unassigned) [Example 7c] |
| 17 µM | 15 µM | O=S(=O)(CF)N1CCC2(CC1)C[C@H]([C@@H]1c3ccccc3-c3cncn31)[C@@H]2O (single isomer, unassigned) [Example 8a] |
| 0.048 µM | 0.12 µM | O=S(=O)(CF)N1CCC2(CC1)C[C@@H]([C@H]1c3ccccc3-c3cncn31)[C@H]2O (single isomer, unassigned) [Example 8b] |
| 18 µM | 21 µM | COC(=O)N1CCC2(CC[C@@H]([C@H]3c4ccccc4-c4cncn43)[C@H]2O)CC1 (single isomer, unassigned) [Example 9a] |
| 0.13 µM | 0.1 µM | COC(=O)N1CCC2(CC[C@H]([C@@H]3c4ccccc4-c4cncn43)[C@@H]2O)CC1 (single isomer, unassigned) [Example 9b] |
|  | 24 µM | CC(=O)N1CCC2(CC[C@@H]([C@H]3c4ccccc4-c4cncn43)[C@H]2O)CC1 (single isomer, unassigned) [Example 10a] |
| 0.24 µM | 0.17 µM | CC(=O)N1CCC2(CC[C@H]([C@@H]3c4ccccc4-c4cncn43)[C@@H]2O)CC1 (single isomer, unassigned) [Example 10b] |
| 20 µM | 0.66 µM | NS(=O)(=O)N1CCC2(CC1)C[C@H]([C@@H]1c3ccccc3-c3cncn31)[C@@H]2O (single isomer, unassigned) [Example 11a] |
|  | 3 µM | NS(=O)(=O)N1CCC2(CC1)C[C@@H]([C@H]1c3ccccc3-c3cncn31)[C@@H]2O (single isomer, unassigned) [Example 11d] |
| 6.8 µM | 12 µM | NS(=O)(=O)N1CCC2(CC1)C[C@@H]([C@@H]1c3ccccc3-c3cncn31)[C@H]2O (single isomer, unassigned) [Example 11e] |
| 0.0585 µM | 0.182 µM | NS(=O)(=O)N1CCC2(CC1)C[C@H]([C@H]1c3ccccc3-c3cncn31)[C@@H]2O (single isomer, unassigned) [Example 11f] |
| 4.7 µM | 0.93 µM | NS(=O)(=O)N1CCC2(CC1)C[C@H]([C@H]1c3ccccc3-c3cncn31)[C@H]2O (single isomer, unassigned) [Example 11g] |
|  | 11 µM | NS(=O)(=O)N1CCC2(CC1)C[C@@H]([C@@H]1c3ccccc3-c3cncn31)[C@@H]2O (single isomer, unassigned) [Example 11h] |
| 8.1 µM | 21 µM | CC(C)(C)OC(=O)N1[C@@H]2CC[C@H]1C[C@@]1(C[C@@H]([C@H]3c4ccccc4-c4cncn43)[C@H]1O)C2 (single isomer, unassigned) [Example 12b] |
| 1.9 µM | 0.52 µM | CC(C)(C)OC(=O)N1[C@@H]2CC[C@H]1C[C@]1(C[C@H]([C@H]3c4ccccc4-c4cncn43)[C@@H]1O)C2 (single isomer, unassigned) [Example 12c] |
| 4.3 µM | 9.8 µM | CC(C)(C)OC(=O)N1[C@@H]2CC[C@H]1C[C@@]1(C[C@@H]([C@@H]3c4ccccc4-c4cncn43)[C@H]1O)C2 (single isomer, unassigned) [Example 12d] |
| 3.9 µM | 1.5 µM | CC(C)(C)OC(=O)N1[C@@H]2CC[C@H]1C[C@]1(C[C@@H]([C@@H]3c4ccccc4-c4cncn43)[C@@H]1O)C2 (single isomer, unassigned) [Example 12e] |
|  | 20 µM | CC(C)(C)OC(=O)N[C@H]1CC[C@]2(CC1)C[C@@H]([C@H]1c3ccccc3-c3cncn31)[C@@H]2O (single isomer, unassigned) [Example 24o] |
| 8.8 µM |  | CC(C)(C)OC(=O)N1CC2CCC(C1)C21C[C@H]([C@H]2c3ccccc3-c3cncn32)[C@@H]1O (stereo partly drawn) [Example 22c, tert-butyl (2′S,3′R)-2′-hydroxy-3′-((S)-5H-imidazo[5,1-a]isoindol-5-yl)-3-azaspiro[bicyclo[3.2.1]octane-8,1′-cyclobutane]-3-carboxylate] |
